Data: patent publication US9771378B2 (Denali Therapeutics, Inc., priority 2014, dated 2017)

System: Aβ42 (human neuroglioma H4 cells expressing human wild type APP751)
Assay: In vitro cell screening assay with sandwich ELISA quantification of Aβ42 peptide
Format: cell-based
Conditions: H4 cells stably expressing human wild type APP751; Pro293 chemically defined medium; compounds 0.003-10 μM; incubated overnight (16-18 h); supernatant Aβ42 by sandwich ELISA; normalized to DMSO and DAPT; read-out: Aβ42 H4 Prot Fre IC50
Experimental: Human neuroglioma H4 cells were transfected with a pcDNA3.1 plasmid expressing human wild type APP751 cDNA and a stable cell line was generated using G418 selection. Cells are plated at 15,000 cells/well in Costar 96-well plates and placed at 37° C. and 5% CO2. Six hours after plating, cells are washed three times with Pro293™ chemically defined medium, followed by addition of compounds (0.003-10 μM, final DMSO concentration of 0.33%). Plates were incubated overnight (16-18 h) and supernatant was removed for quantification of AP peptides by sandwich ELISA. Cytotoxicity was evaluated using Cell-Titer 96W AQueous One Solution Cell Proliferation Assay according to the manufacturer's protocol.
ELISA Measurements of Aβ Peptides
Aβ peptide levels were quantified by sandwich ELISA. 96-well plates are coated with C-terminal specific Aβ antibodies recognizing either Aβ37, Aβ38, Aβ40, Aβ42, Aβ43 or a N-terminal specific Aβ antibody to detect Aβ 1-x. Plates are then blocked overnight at 4° C. with 1% bovine serum albumin (BSA) in PBS-T. Plates are washed and 100 μl of cultured cell supernatant or synthetic Aβ peptide standards and a detection antibody (4G8-HRP) are applied to the blocked plate and incubated overnight at 4° C. The next day, wells are washed before the addition […] of detection substrate (TMB peroxidase). Plates are then read for absorbance at 450 nm on a Molecular Devices SpectraMax M5e Microplate Reader.
IC50 values were calculated from values reported as percent of DMSO controls using nonlinear regression, based on a sigmoidal dose-response (variable slope) model. GraphPAD software from Prism used for calculation.

Point of comparison: `COc1cc(Nc2ncc3c(n2)N(C)C(C)CO3)ccc1-n1cnc(C)c1` (racemic) [Example 52], IC50 205 nM. Against it:
- Cc1cn(-c2ccc(Nc3ncc4c(n3)N(C)C(c3cc(F)cc(F)c3)CO4)cc2)cn1 (racemic) [Example 23] — 5.4-fold lower, 37.9 nM
- Cc1cc(-c2ccc(Nc3ncc4c(n3)N(C)C(c3ccccc3)CO4)cc2)ccn1 (racemic) [Example 24] — within 1.5-fold, 155 nM
- Cc1cn(-c2ccc(Nc3ncc4c(n3)N(C)C(c3ccccc3)CO4)cc2F)cn1 (racemic) [Example 25] — 2-fold lower, 101 nM
- Cc1cn(-c2ccc(Nc3ncc4c(n3)N(C)C(c3ccccc3)CO4)cc2)cn1 (racemic) [Example 26] — 1.7-fold lower, 121 nM
- Cc1cc(-c2ccc(Nc3ncc4c(n3)N(C)C(c3ccccc3)CO4)cc2F)ccn1 (racemic) [Example 27] — 1.8-fold higher, 374 nM
- Cc1cc(-c2ccc(Nc3ncc4c(n3)N(C)C(c3cc(F)cc(F)c3)CO4)cc2)ccn1 (racemic) [Example 28] — 2.3-fold lower, 90 nM
- Cc1cc(-c2ccc(Nc3ncc4c(n3)N(C)C(c3ccccc3C)CO4)cc2)ccn1 (racemic) [Example 29] — within 1.5-fold, 297 nM
- COc1cc(Nc2ncc3c(n2)N(C)C(c2cc(F)cc(F)c2)CO3)ccc1-n1cnc(C)c1 (racemic) [Example 30] — 11-fold lower, 18 nM
- COc1cc(Nc2ncc3c(n2)N(C)C(c2ccccc2C)CO3)ccc1-n1cnc(C)c1 (racemic) [Example 31] — 8.2-fold lower, 25 nM
- Cc1cc(-c2ccc(Nc3ncc4c(n3)N(C)C(c3ccccc3C)CO4)cc2F)ccn1 (racemic) [Example 32] — within 1.5-fold, 168 nM
- Cc1cn(-c2ccc(Nc3ncc4c(n3)N(C)C(c3cc(F)cc(F)c3)CO4)cc2F)cn1 (racemic) [Example 33] — 5.4-fold lower, 38 nM
- Cc1cn(-c2ccc(Nc3ncc4c(n3)N(C)C(c3ccccc3C)CO4)cc2F)cn1 (racemic) [Example 34] — 4.7-fold lower, 44 nM
- COc1cc(Nc2ncc3c(n2)N(C)C(c2ccccc2C)CO3)ccc1-c1ccnc(C)c1 (racemic) [Example 35] — 2.4-fold lower, 87 nM
- Cc1cc(-c2ccc(Nc3ncc4c(n3)N(C)C(c3cc(F)c(F)c(F)c3)CO4)cc2F)ccn1 (racemic) [Example 36] — within 1.5-fold, 162 nM
- Cc1cc(-c2ccc(Nc3ncc4c(n3)N(C)C(c3cc(F)c(F)c(F)c3)CO4)cc2)ccn1 (racemic) [Example 37] — 2-fold lower, 103 nM
- Cc1cn(-c2ccc(Nc3ncc4c(n3)N(C)C(c3cc(F)c(F)c(F)c3)CO4)cc2F)cn1 (racemic) [Example 38] — 6.4-fold lower, 32 nM
- COc1cc(Nc2ncc3c(n2)N(C)C(c2cc(F)c(F)c(F)c2)CO3)ccc1-c1ccnc(C)c1 (racemic) [Example 39] — 5.9-fold lower, 35 nM
- COc1cc(Nc2ncc3c(n2)N(C)C(c2cc(F)c(F)c(F)c2)CO3)ccc1-n1cnc(C)c1 (racemic) [Example 40] — 10-fold lower, 20 nM
- Cc1cc(-c2ccc(Nc3ncc4c(n3)N(C)C(c3cc(F)cc(F)c3)CO4)cc2F)ccn1 (racemic) [Example 41] — 3.3-fold lower, 63 nM
- COc1cc(Nc2ncc3c(n2)N(C)C(c2cc(F)cc(F)c2)CO3)ccc1-c1ccnc(C)c1 (racemic) [Example 42] — 4.4-fold lower, 47 nM
- Cc1cn(-c2ccc(Nc3ncc4c(n3)N(C)C(c3ccccc3C)CO4)cc2)cn1 (racemic) [Example 43] — within 1.5-fold, 216 nM
- Cc1cn(-c2ccc(Nc3ncc4c(n3)N(C)C(c3cc(F)c(F)c(F)c3)CO4)cc2)cn1 (racemic) [Example 44] — 2.7-fold lower, 75 nM
- COc1cc(Nc2ncc3c(n2)N(C)C(c2ccccc2)CO3)ccc1-n1cnc(C)c1 (racemic) [Example 45, N-(3-methoxy-4-(4-methyl-1H-imidazol-1-yl)phenyl)-8-methyl-7-phenyl-7,8-dihydro-6H-pyrimido[5,4-b][1,4]oxazin-2-amine] — 3.5-fold lower, 58 nM
- COc1cc(Nc2ncc3c(n2)N(C)C(c2ccccc2)CO3)ccc1-c1ccnc(C)c1 (racemic) [Example 46, N-(3-methoxy-4-(2-methylpyridin-4-yl)phenyl)-8-methyl-7-phenyl-7,8-dihydro-6H-pyrimido[5,4-b][1,4]oxazin-2-amine] — 4.3-fold lower, 48 nM
- COc1cc(Nc2ncc3c(n2)N(C)C(Cc2ccccc2)CO3)ccc1-n1cnc(C)c1 (racemic) [Example 47] — 5-fold lower, 41 nM
- COc1cc(Nc2ncc3c(n2)N(C)C(c2ccc(F)cc2F)CO3)ccc1-n1cnc(C)c1 (racemic) [Example 48] — 5.7-fold lower, 36 nM
- COc1cc(Nc2ncc3c(n2)N(C)C(c2ccc(F)cc2)CO3)ccc1-n1cnc(C)c1 (racemic) [Example 49] — 5.7-fold lower, 36 nM
- COc1cc(Nc2ncc3c(n2)N(C)C(C2CCOCC2)CO3)ccc1-n1cnc(C)c1 (racemic) [Example 50] — within 1.5-fold, 173 nM
- COc1cc(Nc2ncc3c(n2)N(C)C(c2ccccc2Cl)CO3)ccc1-n1cnc(C)c1 (racemic) [Example 51] — 6.4-fold lower, 32 nM
- COc1cc(Nc2ncc3c(n2)N(C)C(c2ccc(F)cc2Cl)CO3)ccc1-n1cnc(C)c1 (racemic) [Example 53] — 5.5-fold lower, 37 nM
- COc1cc(Nc2ncc3c(n2)N(C)C(c2ccc(F)cc2C)CO3)ccc1-n1cnc(C)c1 (racemic) [Example 54] — 2.7-fold lower, 75 nM
- COc1cc(Nc2ncc3c(n2)N(C)C(c2ccccc2C(F)(F)F)CO3)ccc1-n1cnc(C)c1 (racemic) [Example 55] — 5.5-fold lower, 37 nM
- COc1ccc(C2COc3cnc(Nc4ccc(-n5cnc(C)c5)c(OC)c4)nc3N2C)c(Cl)c1 (racemic) [Example 86] — 5.4-fold lower, 38 nM
- COc1ccc(Cl)c(C2COc3cnc(Nc4ccc(-n5cnc(C)c5)c(OC)c4)nc3N2C)c1 (racemic) [Example 87] — 4.9-fold lower, 42 nM
- COc1cc(Nc2ncc3c(n2)N(C)C(c2cc(C(F)(F)F)ccc2Cl)CO3)ccc1-n1cnc(C)c1 (racemic) [Example 88] — 5.3-fold lower, 39 nM
- COc1cc(Cl)c(C2COc3cnc(Nc4ccc(-n5cnc(C)c5)c(OC)c4)nc3N2C)cc1Cl (racemic) [Example 89] — 8.9-fold lower, 23 nM
- COc1ccc(C)c(C2COc3cnc(Nc4ccc(-n5cnc(C)c5)c(OC)c4)nc3N2C)c1 (racemic) [Example 90] — 7.6-fold lower, 27 nM
- COc1cc(Nc2ncc3c(n2)N(C)C(c2ccc(C(F)(F)F)cc2C(F)(F)F)CO3)ccc1-n1cnc(C)c1 (racemic) [Example 91] — 1.9-fold lower, 110 nM
- COc1ccc(C2COc3cnc(Nc4ccc(-n5cnc(C)c5)c(OC)c4)nc3N2C)c(C)c1 (racemic) [Example 92] — 7.6-fold lower, 27 nM
- COc1nc(Nc2ncc3c(n2)N(C)C(C)CO3)ccc1-n1cnc(C)c1 (racemic) [Example 190] — higher, > 3000 nM
- COc1nc(Nc2ncc3c(n2)N(C)C(c2cc(F)c(F)cc2F)CO3)ccc1-n1cnc(C)c1 (racemic) [Example 191] — 11-fold higher, 2250 nM
- COc1nc(Nc2ncc3c(n2)N(C)C(C)CO3)ccc1-c1cnn(C)c1 (racemic) [Example 195] — higher, > 3000 nM
- COc1nc(Nc2ncc3c(n2)N(C)C(c2cc(F)c(F)c(F)c2)CO3)c(F)cc1-c1cnn(C)c1 (racemic) [Example 196] — 2.7-fold higher, 544 nM
- COc1nc(Nc2ncc3c(n2)N(C)C(c2cc(F)cc(F)c2)CO3)c(F)cc1-c1cnn(C)c1 (racemic) [Example 197] — higher, > 3000 nM
- COc1cc(Nc2ncc3c(n2)N(C)C(C)CO3)ncc1-n1cnc(C)c1 (racemic) [Example 234] — 8.6-fold higher, 1770 nM
- Cc1cn(-c2ccc(Nc3ncc4c(n3)N(C)C(c3cc(F)c(F)cc3C(F)(F)F)CO4)cc2F)cn1 (single isomer, unassigned) [Example 198A] — 5.4-fold higher, 1110 nM
- Cc1cn(-c2ccc(Nc3ncc4c(n3)N(C)C(c3cc(F)c(F)cc3C(F)(F)F)CO4)cc2F)cn1 (single isomer, unassigned) [Example 198B] — 2-fold lower, 101 nM
